Entries after “also recorded” stand apart in the source; their conditions may differ.
Key:
[1] = system: primary adult rat dorsal root ganglion neuron (DRGN) cultures; experiment: DRGN survival and neurite outgrowth in culture; type: cell-based; conditions: for optimal concentration that promoted DRGN/RGC survival and neurite outgrowth: preliminary experiments, DRGN/RGC cultures
Protocol: (§1) Rat DRGN and retinal cultures. […] Cells were cultured for 4 days in a humidified chamber at 37° C. and 5% CO2 before being subjected to quantitative RT-PCR or immunocytochemistry, as described below.
Immunocytochemistry. […] Slides were then viewed with an epi-fluorescent Axioplan 2 microscope, equipped with an AxioCam HRc and running Axiovision Software (all from Carl Zeiss, Hertfordshire, UK).

dorsal column (DC) axons = experiment: DC crush injury model: GAP43+ DC axon regeneration; type: in vivo, rat
[2] = system: T8 dorsal column (DC) crush model of spinal cord injury; experiment: DC crush injury model: electrophysiology (compound action potentials); type: in vivo, rat; conditions: 6 weeks after DC injury
Protocol: (§2) DC crush injury model. Rats were injected subcutaneously with 0.05 ml Buprenorphine to provide analgesia prior to surgery and anaesthetised using 5% of Isoflurane in 1.8 ml/l of O2 with body temperature and heart rate monitored throughout surgery.
(§3) Chk2 inhibition studies in the DC crush injury model. […] Chk1i (LY2603618) was used at equimolar concentrations for each experiment. Rats were killed in a rising concentration of CO2 at either 28 d for immunohistochemistry and western blot analyses or 6 weeks for electrophysiology and functional tests.
Electrophysiology. […] Briefly, with the experimenter masked to the treatment conditions, silver wire electrodes applied single-current pulses (0.05 ms) through a stimulus isolation unit in increments (0.2, 0.3, 0.6, 0.8, and 1.2 mA) at L1-L2 and compound action potentials (CAP) were recorded at C4-C5 along the surface of the midline spinal cord. Spike 2 software was then used to calculate CAP amplitudes between the negative deflection after the stimulus artifact and the next peak of the wave. CAP area was calculated by rectifying the negative CAP component (full-wave rectification) and measuring its area. At the different stimulation intensities. […] Representative CAP traces are processed output data from Spike 2 software.

[3] = system: T8 dorsal column (DC) crush model of spinal cord injury; experiment: DC crush injury model: tape sensing and removal test (sensory function); type: in vivo, rat; conditions: followed over 6 weeks
Protocol: as §2, §3
(§4) Functional tests. […] Experiments were performed by 2 observers (treatment conditions were masked) in the same order, the same time of day and each test performed for 3 individual trials.

[4] = system: T8 dorsal column (DC) crush model of spinal cord injury; experiment: DC crush injury model: horizontal ladder test (locomotor function); type: in vivo, rat; conditions: followed over 6 weeks
Protocol: as §2, §3, §4
Horizontal ladder test: This tests the animals locomotor function and is performed on a 0.9-meter-long horizontal ladder with a diameter of 15.5 cm and randomly adjusted rungs with variable gaps of 3.5-5.0 cm. The total number of steps taken to cross the ladder and the left and right rear paw slips being were recorded and the mean error rate was then calculated by dividing the number of slips by the total number of steps taken.

RGC [5] = experiment: Glaucoma model: RGC survival in retinal wholemounts; type: in vivo, rat; conditions: 30 days after induction of glaucoma
Protocol: Induction of glaucoma. […] At day zero, a self-sealing incision was made though the cornea into the anterior chamber enabling twice weekly intracameral injections of 3.5 μl of TGFβ2 (5 ng/μl) using glass micropipettes for 30 days. Vehicle, comprising saline, was injected in control groups. Intraocular pressure was measured using an iCare Tonolab rebound tonometer (Icare, Helsinki, Finland).
(§5) Assessment of RGC survival.

RGC [6] = experiment: Optic neuritis model: RGC survival (Fluorgold backfilled wholemounts); type: in vivo, mice; conditions: 21 days after induction
Protocol: (§6) Induction of optic neuritis. […] Animals were intraperitoneally injected with 150 ng Bordetella pertussis toxin on day 0 and 2. Animals were monitored daily and assessed for the development of EAE. At the end of the experiment, animals were then killed by CO2 overdose.
as §5

[7] = system: retinal nerve fibre layer; experiment: Optic neuritis model: RNFL thickness by OCT; type: in vivo, mice; conditions: day 21
Protocol: as §6
Measurement of RNFL thinning using optical coherence tomography (OCT). […] Examinations were recorded in both right (oculus dextrus, OD) and left eyes (oculus sinister, OS) of each animal at day 0 and day 21 after immunisation. […] A RNFL single exam using the automatic real time (ART) mode (allows averaging of 100 recordings) was produced for each mouse eye, which automatically measured RNFL thickness (μm) in a 30° circle surrounding the optic nerve head.

RGC function = conditions: 24 days after ONC
pChk2^T68 and pChk2^T383 = conditions: western blot and densitometry
Protocol: as §1
Protein extraction and western blot analysis. […] For densitometry, western blots were scanned into Adobe Photoshop (Adobe Systems Inc, San Jose, Calif., USA) and analysed using the built-in-macros for gel analysis in ImageJ (NIH, USA, http://imagej.nih.clov/ij).

## NC(=O)c1ccc2[nH]c(-c3ccc(Oc4ccc(Cl)cc4)cc3)nc2c1 [BML-277]
[1]
  optimal concentration that promoted DRGN/RGC survival and neurite outgrowth: 5 µM

## COc1cc2nc(-c3cc(F)ccc3O)nc(N[C@@H]3CNC[C@H]3C(C)(C)O)c2cc1OC [CCT241533]
[1]
  optimal concentration that promoted DRGN/RGC survival and neurite outgrowth: 10 µM

## Cc1cnc(NC(=O)Nc2cc(Br)c(C)cc2OC[C@@H]2CNCCO2)cn1 [LY2603618]
[1]; 1-50 μM
  effect on DRGN/RGC survival: no effect
[1]; 4 days culture
  effect on DRGN survival, % DRGN with neurites and neurite length: no effect
Dorsal column (DC) axons; listed as Chk1 i
  DC axon regeneration beyond the lesion site: few GAP43^+ axons
Dorsal column (DC) axons; listed as Chk1i
  DC axon regeneration beyond the lesion site: no axon regeneration beyond the lesion site
[2]
  CAP area at different stimulation intensities: significantly attenuated
[2]; different stimulation intensities
  negative CAP amplitudes: significantly attenuated
[3]; listed as Chk1 i
  tape sensing/removal test performance: a significant deficit remained
[3]; listed as Chk1i
  tape sensing/removal test performance: a significant deficit remained
[4]; listed as Chk1 i
  ladder crossing test performance: a deficit remaining
[4]; listed as Chk1i
  ladder crossing test performance: a significant deficit remains; also recorded: a deficit remaining
RGC [5]
  RGC survival in glaucoma: no effect
RGC [6]
  RGC survival in optic neuritis: no effect
[7]
  RNFL thickness in optic neuritis: no effect
RGC function
  ERG traces and pSTR amplitude: no effect

## COc1cccc(OCCCN)c1-c1cc(Nc2cnc(C#N)cn2)n[nH]1 [Prexasertib]
[1]
  optimal concentration that promoted DRGN/RGC survival and neurite outgrowth: 10 µM

## CCT241533
pChk2^T68 and pChk2^T383
  Chk2 phosphorylation (pChk2^T68, pChk2^T383) in DRGN cultures: suppresses

## FGF2: positive control for DRGN cultures, pre-optimised 10 ng/ml
[1]; 4 days culture
  % DRGN with neurites: 42%
[1]; 4 days culture, controls 12 μm
  mean neurite length: 180 μm
